In patent EP0552018A1, “Use of Rifabutin for delaying or preventing mycobacterial infections” (Erbamont Inc., priority 1992, dated 1993):

How the values were obtained:
[1] = system: Mycobacterium avium complex (MAC); experiment: Multicenter, randomized, placebo controlled clinical trial: prevention or delay of MAC infection in AIDS patients; format: in vivo, human
M. tuberculosis = experiment: Same clinical trial: occurrence of M. tuberculosis infections; format: in vivo, human; conditions: rifabutin 300 mg/day; three patients on the placebo arm developed M. tuberculosis infections
Protocol: The efficacy of rifabutin on the prevention of MAC disease in HIV positive patients having a CD4 count of ≦200/mm³ was assessed in a large multicenter controlled trial in the United States.
Five hundred ninety (590) patients with CD4 counts ≦200/mm³; and with no clinical evidence of MAC infection (as determined by two blood cultures) were randomly assigned to receive either rifabutin monotherapy (300 mg/day) or placebo. Nine of these patients, five in the rifabutin group and four in the placebo group, who were enrolled with presumptive negative evidence of MAC blood cultures were subsequently found to have had MAC bacteremia at baseline and were excluded from the study. Fifty-six of the 581 patients who had confirmed negative cultures at baseline developed MAC infection after having enrolled in the study. Eighteen of those 56 patients were in the rifabutin group and the other 38 were in the placebo group. After excluding seven patients from each group who were considered to be inevaluable, the treatment groups were compared with respect to the incidence of MAC infection; the observed difference was highly statistically significant (p=0.002, Chi-squared test).
Three patients on the placebo arm of the study developed M. tuberculosis infections (other than MAC) while no patients receiving rifabutin developed tuberculosis. […]

[2] = system: atypical mycobacterial infection; experiment: Same clinical trial: occurrence of atypical mycobacterial infection; format: in vivo, human; conditions: rifabutin 300 mg/day; one patient on the placebo arm developed it
[3] = cited from earlier work

CO[C@H]1/C=C/O[C@@]2(C)Oc3c(C)c(O)c4c(c3C2=O)C2=NC3(CCN(CC(C)C)CC3)NC2=C(NC(=O)/C(C)=C\C=C\[C@H](C)[C@H](O)[C@@H](C)[C@@H](O)[C@@H](C)[C@H](OC(C)=O)[C@@H]1C)C4=O [rifabutin, 4-dioxo-3,4-[2-spiro-(N-isobutyl-4-piperidyl)-2,5-dihydro-1H-imidazo]-rifamycin S]
Patients who developed MAC infection after having enrolled in the study ([1]; HIV positive patients, CD4 ≦200/mm³, rifabutin monotherapy 300 mg/day oral, of 581 patients with confirmed negative cultures at baseline, before excluding inevaluable patients): Eighteen | Time of MAC infection in patients who got a MAC infection ([1]; analysis by Kaplan/Meier Methodology, compared with placebo): significantly later than patients on placebo | Likelihood of placebo patients to die or to experience a MAC event relative to patients receiving rifabutin ([1]; at any point in time, on average, Kaplan/Meier analysis): 2.3 times | Number of: Patients without MAC ([1]; evaluable patients, rifabutin 300 mg/day, group total 280): 269 | Number of: Patients with MAC ([1]; evaluable patients, rifabutin 300 mg/day, group total 280, vs placebo x^2 = 9.76, P ≅ 0.002): 11 | Patients who developed tuberculosis (M. tuberculosis): no patients | Patients who developed atypical mycobacterial infection [2]: no patients | Solubility in chloroform ([3]; chloroform): soluble | Solubility in methanol ([3]; methanol): soluble | Solubility in water ([3]; water): very slightly soluble
